As a reminder, the IC50 is the concentration at which inhibition is half-maximal. High values mean weaker potency in that assay, low ones greater potency in that assay.

The target in this experiment is T1, MAGL (Homo sapiens, UniProt Q99685).
T1 sequence (Q99685 1-303): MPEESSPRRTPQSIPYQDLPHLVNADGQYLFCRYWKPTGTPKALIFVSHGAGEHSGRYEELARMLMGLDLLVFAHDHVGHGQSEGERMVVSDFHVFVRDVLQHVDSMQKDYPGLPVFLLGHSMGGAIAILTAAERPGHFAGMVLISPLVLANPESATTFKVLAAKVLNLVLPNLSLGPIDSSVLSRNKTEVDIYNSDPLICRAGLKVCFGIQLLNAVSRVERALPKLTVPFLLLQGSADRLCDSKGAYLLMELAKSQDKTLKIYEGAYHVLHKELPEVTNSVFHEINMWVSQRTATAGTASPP
Kind of experiment: 2-AG assay (MAGL inhibitory activity; hydrolysis of 2-arachidonoylglycerol to arachidonic acid followed by mass spectrometry). In kind it is biochemical. To be noted: 15 min preincubation at RT, 8 μM 2-arachidonoylglycerol, 30 min at RT, RapidFire MS readout. An outline of the steps: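 Compounds (final 12.5 μM to […], 3-fold steps) preincubated 15 min at RT with MAGL ([…]) in 50 mM TRIS, 1 mM EDTA, Tween buffer. Reaction started with 8 μM 2-arachidonoylglycerol, run 30 min at RT, quenched with ACN containing d8-arachidonic acid. Arachidonic acid quantified by RapidFire SPE-triple quadrupole MS (negative ESI), activity from arachidonic acid/d8 ratio.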
`O=C(c1cccc(-c2c[nH]nc2F)c1Cl)N1CCN2C[C@@H](c3cc(Cl)c[nH]c3=O)OC[C@@H]2C1` [Example 77, 3-[(3R,9aS)-8-[2-chloro-3-(3-fluoro-1H-pyrazol-4-yl)benzoyl]-3,4,6,7,9,9a-hexahydro-1H-pyrazino[2,1-c][1,4]oxazin-3-yl]-5-chloro-1H-pyridin-2-one]: the IC50 worked out at 46.3 nM. Next, `O=C(c1cccc(-c2c[nH]nc2F)c1F)N1CCN2C[C@@](O)(c3ccc(C(F)(F)F)nc3)OC[C@@H]2C1` [Example 78, [(3R,9aS)-3-hydroxy-3-[6-(trifluoromethyl)-3-pyridyl]-1,4,6,7,9,9a-hexahydropyrazino[2,1-c][1,4]oxazin-8-yl]-[2-fluoro-3-(3-fluoro-1H-pyrazol-4-yl)phenyl]methanone]: 130 nM. Next, `N#Cc1n[nH]cc1-c1cccc(C(=O)N2CCN3C[C@@](O)(c4ccc(C(F)(F)F)nc4)OC[C@@H]3C2)c1Cl` [Example 80, 4-[3-[(3R,9aS)-3-hydroxy-3-[6-(trifluoromethyl)-3-pyridyl]-1,4,6,7,9,9a-hexahydropyrazino[2,1-c][1,4]oxazine-8-carbonyl]-2-chloro-phenyl]-1H-pyrazole-3-carbonitrile]: 26.2 nM; `O=C(c1cccc(-c2c[nH]nc2F)c1)N1CCN2C[C@@](O)(c3ccc(C(F)(F)F)nc3)OC[C@@H]2C1` [Example 81, [(3R,9aS)-3-hydroxy-3-[6-(trifluoromethyl)-3-pyridyl]-1,4,6,7,9,9a-hexahydropyrazino[2,1-c][1,4]oxazin-8-yl]-[3-(3-fluoro-1H-pyrazol-4-yl)phenyl]methanone]: 80.4 nM. The result for `O=C(c1cccc(-c2cn[nH]c2)c1Cl)N1CCN2C[C@@](O)(c3ccc(C(F)(F)F)nc3)OC[C@@H]2C1` [Example 82, [(3R,9aS)-3-hydroxy-3-[6-(trifluoromethyl)-3-pyridyl]-1,4,6,7,9,9a-hexahydropyrazino[2,1-c][1,4]oxazin-8-yl]-[2-chloro-3-(1H-pyrazol-4-yl)phenyl]methanone] reads 15.9 nM; that for `COc1cccc(C(=O)N2CCN3C[C@@H](c4cc(C)c(Cl)cn4)OC[C@@H]3C2)c1Cl` [Example 83, (2-chloro-3-methoxyphenyl)((3S,9aS)-3-(5-chloro-4-methylpyridin-2-yl)hexahydropyrazino[2,1-c][1,4]oxazin-8(1H)-yl)methanone], 94.4 nM; that for `COc1cccc(C(=O)N2CCN3C[C@H](c4cc(C)c(Cl)cn4)OC[C@@H]3C2)c1Cl` [Example 84, (2-chloro-3-methoxyphenyl)((3R,9aS)-3-(5-chloro-4-methylpyridin-2-yl)hexahydropyrazino[2,1-c][1,4]oxazin-8(1H)-yl)methanone], 333 nM. `O=C(c1cccc(-c2c[nH]nc2F)c1Cl)N1CCN2C[C@@](O)(c3ccc(C(F)(F)F)cn3)OC[C@@H]2C1` [Example 85, [(3S,9aS)-3-hydroxy-3-[5-(trifluoromethyl)-2-pyridyl]-1,4,6,7,9,9a-hexahydropyrazino[2,1-c][1,4]oxazin-8-yl]-[2-chloro-3-(3-fluoro-1H-pyrazol-4-yl)phenyl]methanone] returned an IC50 of 38.2 nM. The result for `O=C(c1cccc(-c2cocn2)c1Cl)N1CCN2C[C@@](O)(c3ccc(C(F)(F)F)cn3)OC[C@@H]2C1` [Example 86, [(3S,9aS)-3-hydroxy-3-[5-(trifluoromethyl)-2-pyridyl]-1,4,6,7,9,9a-hexahydropyrazino[2,1-c][1,4]oxazin-8-yl]-(2-chloro-3-oxazol-4-yl-phenyl)methanone] reads 237 nM. The result for `COc1cccc(C(=O)N2CCN3C=C(c4nc5ccccc5s4)OCC3C2)c1Cl` (stereo not drawn) [Example 87, [3-(1,3-benzothiazol-2-yl)-6,7,9,9a-tetrahydro-1H-pyrazino[2,1-c][1,4]oxazin-8-yl]-(2-chloro-3-methoxy-phenyl)methanone] reads 983 nM. Compound `O=C(c1cccc(-c2c[nH]nc2F)c1Cl)N1CCN2C[C@@](F)(c3ccc(C(F)(F)F)nc3)OC[C@@H]2C1` [Example 88, [2-chloro-3-(3-fluoro-1H-pyrazol-4-yl)phenyl]-[(3S,9aS)-3-fluoro-3-[6-(trifluoromethyl)-3-pyridyl]-1,4,6,7,9,9a-hexahydropyrazino[2,1-c][1,4]oxazin-8-yl]methanone] returned an IC50 of 10.7 nM. `COc1cccc(C(=O)N2CCN3C[C@@H](c4ccc(C(F)(F)F)nn4)OC[C@@H]3C2)c1Cl` [Example 89, (2-chloro-3-methoxy-phenyl)-[(3S,9aS)-3-[6-(trifluoromethyl)pyridazin-3-yl]-3,4,6,7,9,9a-hexahydro-1H-pyrazino[2,1-c][1,4]oxazin-8-yl]methanone] showed an IC50 of 2030 nM. The result for `COc1cccc(C(=O)N2CCN3C[C@H](c4cc(Cl)ccn4)OC[C@@H]3C2)c1Cl` [Example 90, [(3R,9aS)-3-(4-chloro-2-pyridyl)-3,4,6,7,9,9a-hexahydro-1H-pyrazino[2,1-c][1,4]oxazin-8-yl]-(2-chloro-3-methoxy-phenyl)methanone] reads 2310 nM. Next, `COc1cccc(C(=O)N2CCN3C[C@@H](c4cc(Cl)ccn4)OC[C@@H]3C2)c1Cl` [Example 91, [(3S,9aS)-3-(4-chloro-2-pyridyl)-3,4,6,7,9,9a-hexahydro-1H-pyrazino[2,1-c][1,4]oxazin-8-yl]-(2-chloro-3-methoxy-phenyl)methanone]: 232 nM; `O=C(c1cccc(-c2c[nH]nc2F)c1Cl)N1CCN2C[C@@](O)(c3ccc(F)c(F)c3)OC[C@@H]2C1` [Example 92, [(3R,9aS)-3-(3,4-difluorophenyl)-3-hydroxy-1,4,6,7,9,9a-hexahydropyrazino[2,1-c][1,4]oxazin-8-yl]-[2-chloro-3-(3-fluoro-1H-pyrazol-4-yl)phenyl]methanone]: 9.1 nM. In turn, `O=C(c1cccc(-c2c[nH]nc2F)c1)N1CCN2C[C@@](O)(c3ccc(F)c(F)c3)OC[C@@H]2C1` [Example 93, [(3R,9aS)-3-(3,4-difluorophenyl)-3-hydroxy-1,4,6,7,9,9a-hexahydropyrazino[2,1-c][1,4]oxazin-8-yl]-[3-(3-fluoro-1H-pyrazol-4-yl)phenyl]methanone] had a 50% inhibitory concentration (IC50) of 81.9 nM. The result for `O=C(c1cccc(-c2c[nH]nc2F)c1Cl)N1CCN2C=C(c3ccc(C(F)(F)F)cn3)OC[C@@H]2C1` [Example 94, [(9aS)-3-[5-(trifluoromethyl)-2-pyridyl]-6,7,9,9a-tetrahydro-1H-pyrazino[2,1-c][1,4]oxazin-8-yl]-[2-chloro-3-(3-fluoro-1H-pyrazol-4-yl)phenyl]methanone] reads 220 nM. Next, `O=C(c1cccc(-c2c[nH]nc2F)c1Cl)N1CCN2C[C@@H](c3ccc(F)c(F)c3)OC[C@@H]2C1` [Example 95, [(3R,9aS)-3-(3,4-difluorophenyl)-3,4,6,7,9,9a-hexahydro-1H-pyrazino[2,1-c][1,4]oxazin-8-yl]-[2-chloro-3-(3-fluoro-1H-pyrazol-4-yl)phenyl]methanone]: 7.6 nM. Next, `O=C(c1cccc(-c2c[nH]nc2F)c1Cl)N1CCN2C[C@H](c3ccc(F)c(F)c3)OC[C@@H]2C1` [Example 96, [(3S,9aS)-3-(3,4-difluorophenyl)-3,4,6,7,9,9a-hexahydro-1H-pyrazino[2,1-c][1,4]oxazin-8-yl]-[2-chloro-3-(3-fluoro-1H-pyrazol-4-yl)phenyl]methanone]: 1240 nM; `O=C(c1cccc(-c2c[nH]nc2F)c1Cl)N1CCN2C[C@@H](c3ccc(C(F)(F)F)nn3)OC[C@@H]2C1` [Example 97, [(3S,9aS)-3-[6-(trifluoromethyl)pyridazin-3-yl]-3,4,6,7,9,9a-hexahydro-1H-pyrazino[2,1-c][1,4]oxazin-8-yl]-[2-chloro-3-(3-fluoro-1H-pyrazol-4-yl)phenyl]methanone]: 439 nM; `COc1cccc(C(=O)N2CCN3C[C@@H](c4cc(C(F)(F)F)c(Cl)cn4)OC[C@@H]3C2)c1Cl` [Example 98, (2-chloro-3-methoxy-phenyl)-[(3S,9aS)-3-[5-chloro-4-(trifluoromethyl)-2-pyridyl]-3,4,6,7,9,9a-hexahydro-1H-pyrazino[2,1-c][1,4]oxazin-8-yl]methanone]: 30.7 nM. In the case of `COc1cccc(C(=O)N2CCN3C[C@@H](c4cc(OC(F)(F)F)ccn4)OC[C@@H]3C2)c1Cl` [Example 99, (2-chloro-3-methoxy-phenyl)-[(3S,9aS)-3-[4-(trifluoromethoxy)-2-pyridyl]-3,4,6,7,9,9a-hexahydro-1H-pyrazino[2,1-c][1,4]oxazin-8-yl]methanone], half-maximal inhibition (IC50) was put at 284 nM. This IC50 lies about 9.3-fold higher than the previous one. The result for `O=C(c1cccc(-c2c[nH]nc2F)c1Cl)N1CCN2C[C@@](O)(c3ccc(C(F)(F)F)[nH]c3=O)OC[C@@H]2C1` [Example 100, 3-[(3R,9aS)-8-[2-chloro-3-(3-fluoro-1H-pyrazol-4-yl)benzoyl]-3-hydroxy-1,4,6,7,9,9a-hexahydropyrazino[2,1-c][1,4]oxazin-3-yl]-6-(trifluoromethyl)-1H-pyridin-2-one] reads 55.3 nM; that for `COc1cccc(C(=O)N2CCN3C[C@@H](c4cc(C(F)(F)F)c(F)cn4)OC[C@@H]3C2)c1Cl` [Example 101, (2-chloro-3-methoxy-phenyl)-[(3S,9aS)-3-[5-fluoro-4-(trifluoromethyl)-2-pyridyl]-3,4,6,7,9,9a-hexahydro-1H-pyrazino[2,1-c][1,4]oxazin-8-yl]methanone], 133 nM.

Values taken from patent publication US12662490B2, “Heterocyclic compounds” (Hoffmann-La Roche Inc., priority 2019, dated 2026).
